Values after ≈ are worked out from the molar mass of the structure shown. Where two headings read alike, the source gives them in different places.
How the values were obtained:
Test in all cases: Antibiotic resistance profile of clinical isolate (Table S1)
[1] = tested on: K. pneumoniae 1711; assay type: cell-based, Klebsiella pneumoniae; conditions: for MIC: Klebsiella pneumoniae
Experimental: (§1) Each strain was grown in Mueller Hinton Broth (MH Broth), and 5 × 10^5 CFU/mL was used to evaluate antibacterial activity. Clinical carbapenem-resistant K. pneumoniae and E. coli isolates were collected at the AOU of Virology and Microbiology of the University of Campania “Luigi Vanvitelli”. […]
(§2) Table S1. Antibiotic resistance profile of K. pneumoniae and E. coli clinical isolates . MIC: Minimum Inhibitory
(§3) Concentration was expressed in µg/mL; S: Sensible; I: Intermediate; R: Resistant.
(§4) Antibiotic Resistance Profile of the Clinical Isolated Bacteria
(§5) Antibiotics MIC (µg/mL) Interpretation […]

[2] = tested on: K. pneumoniae 1745; assay type: cell-based, Klebsiella pneumoniae; conditions: for MIC: Klebsiella pneumoniae
Experimental: as §1, §2, §3, §4, §5

[3] = tested on: K. pneumoniae 1746; assay type: cell-based, Klebsiella pneumoniae
Experimental: as §1, §2, §3, §4, §5

[4] = tested on: K. pneumoniae 311; assay type: cell-based, Klebsiella pneumoniae; conditions: for MIC: Klebsiella pneumoniae
Experimental: as §1, §2, §3, §4, §5

[5] = tested on: E. coli 1376; assay type: cell-based, Escherichia coli; conditions: for MIC: Escherichia coli
Experimental: as §1, §2, §3, §4, §5

[6] = tested on: E. coli 1441; assay type: cell-based, Escherichia coli; conditions: for MIC: Escherichia coli
Experimental: as §1, §2, §3, §4, §5

[7] = tested on: E. coli 2267; assay type: cell-based, Escherichia coli; conditions: for MIC: Escherichia coli
Experimental: as §1, §2, §3, §4, §5

[8] = tested on: E. coli 3140; assay type: cell-based, Escherichia coli; conditions: for MIC: Escherichia coli
Experimental: as §1, §2, §3, §4, §5

[9] = tested on: E. coli 716; assay type: cell-based, Escherichia coli; conditions: for MIC: Escherichia coli
Experimental: as §1, §2, §3, §4, §5

[10] = Table S1, K. pneumoniae 1711, read-out: MIC
[11] = Table S1, K. pneumoniae 1745, read-out: MIC
[12] = Table S1, E. coli 2267, read-out: MIC

Row | Compound | MIC [1, 10] | Interpretation ([1]; Table S1, K. pneumoniae 1711) | MIC [2, 11] | Interpretation ([2]; Table S1, K. pneumoniae 1745) | MIC ([3]; Klebsiella pneumoniae, 1746) | Interpretation ([3]; Table S1, K. pneumoniae 1746) | MIC [4]; 311 | Interpretation ([4]; Table S1, K. pneumoniae 311) | MIC [5]; 1376 | Interpretation ([5]; Table S1, E. coli 1376) | MIC [6]; 1441 | Interpretation ([6]; Table S1, E. coli 1441) | MIC [7, 12] | Interpretation ([7]; Table S1, E. coli 2267) | MIC [8]; 3140 | Interpretation ([8]; Table S1, E. coli 3140) | MIC [9]; 716 | Interpretation ([9]; Table S1, E. coli 716) | also measured
1 | NCC[C@H](O)C(=O)N[C@@H]1C[C@H](N)[C@@H](O[C@H]2O[C@H](CN)[C@@H](O)[C@H](O)[C@H]2O)[C@H](O)[C@H]1O[C@H]1O[C@H](CO)[C@@H](O)[C@H](N)[C@H]1O [Amikacin] | ≤ 4 µg/mL | S | 8 µg/mL (≈ 13.7 µM) | S | ≤ 4 µg/mL | S | ≤ 4 µg/mL | S | > 16 µg/mL | R | ≤ 4 µg/mL | S | ≤ 4 µg/mL | S | ≤ 4 µg/mL | S | ≤ 4 µg/mL | S | 
2 | CC1(C)S[C@@H]2[C@H](NC(=O)[C@H](N)c3ccccc3)C(=O)N2[C@H]1C(=O)O [Ampicillin] |  | R |  | R | > 8 µg/mL | R | > 8 µg/mL | R | > 8 µg/mL | R | > 8 µg/mL | R |  | R | > 8 µg/mL | R | > 8 µg/mL | R | MIC [1]; 1711: > 8 µg/mL; MIC [2]; 1745: > 8 µg/mL; MIC [7]; 2267: > 8 µg/mL
3 | C[C@H]1[C@H](NC(=O)/C(=N\OC(C)(C)C(=O)O)c2csc(N)n2)C(=O)N1S(=O)(=O)O [Aztreonam] |  | R |  | R |  |  |  |  |  |  |  |  |  | R |  |  |  |  | 
4 | CO/N=C(\C(=O)N[C@@H]1C(=O)N2C(C(=O)[O-])=C(C[N+]3(C)CCCC3)CS[C@H]12)c1csc(N)n1 [Cefepime] |  | R |  | R |  |  |  |  |  |  |  |  |  | R |  |  |  |  | 
5 | CC(C)(O/N=C(\C(=O)N[C@@H]1C(=O)N2C(C(=O)[O-])=C(C[N+]3(CCNC(=O)c4ccc(O)c(O)c4Cl)CCCC3)CS[C@H]12)c1csc(N)n1)C(=O)O [Cefiderocol] |  | I |  |  |  | S |  |  |  |  |  |  |  |  |  |  |  |  | 
6 | CC(C)(O/N=C(\C(=O)N[C@@H]1C(=O)N2C(C(=O)[O-])=C(C[n+]3ccccc3)CS[C@H]12)c1csc(N)n1)C(=O)O [Ceftazidime] | > 16 µg/mL | R | > 16 µg/mL | R | > 16 µg/mL | R | > 16 µg/mL | R | > 16 µg/mL | R | > 16 µg/mL | R | > 16 µg/mL | R | 16 µg/mL (≈ 29.3 µM) | R | > 16 µg/mL | R | 
7 | CO/N=C(\C(=O)N[C@@H]1C(=O)N2C(C(=O)O)=C(CSc3nc(=O)c(=O)[nH]n3C)CS[C@H]12)c1csc(N)n1 [Ceftriaxone] | > 4 µg/mL | R | > 4 µg/mL | R | > 4 µg/mL | R | > 4 µg/mL | R | > 4 µg/mL | R | > 4 µg/mL | R | > 4 µg/mL | R | ≤ 0.5 µg/mL | S | > 4 µg/mL | R | 
8 | CO/N=C(\C(=O)N[C@@H]1C(=O)N2C(C(=O)O)=C(COC(N)=O)CS[C@H]12)c1ccco1 [Cefuroxime] | > 8 µg/mL | R | > 8 µg/mL | R |  |  | > 8 µg/mL | R | > 8 µg/mL | R | > 8 µg/mL | R | > 8 µg/mL | R | > 8 µg/mL | R | > 8 µg/mL | R | 
9 | C[C@@H](O)[C@H]1C(=O)N2C(C(=O)O)=C(S[C@@H]3CN[C@H](C(=O)Nc4cccc(C(=O)O)c4)C3)[C@H](C)[C@H]12 [Ertapenem] | > 1 µg/mL | R | > 1 µg/mL | R | > 1 µg/mL | R | > 1 µg/mL | R | > 1 µg/mL | R | > 1 µg/mL | R | > 1 µg/mL | R | > 1 µg/mL | R | > 1 µg/mL | R | 
10 | C[C@@H]1O[C@@H]1P(=O)(O)O [Fosfomycin] | 32 µg/mL (≈ 232 µM) | S | ≤ 16 µg/mL | S | ≤ 16 µg/mL | S | ≤ 16 µg/mL | S | > 64 µg/mL | R | ≤ 16 µg/mL | S | ≤ 16 µg/mL | S |  |  | ≤ 16 µg/mL | S | 
11 | O=C1CN(/N=C/c2ccc([N+](=O)[O-])o2)C(=O)N1 [Nitrofurantoin] |  |  |  |  |  |  |  |  |  |  |  |  |  |  | ≤ 16 µg/mL | S |  |  | 
12 | CCn1cc(C(=O)O)c(=O)c2cc(F)c(N3CCNCC3)cc21 [Norfloxacin] |  |  |  |  |  |  |  |  |  |  |  |  |  |  | ≤ 0.5 µg/mL | S |  |  | 
13 | CO[C@@]1(NC(=O)C(C(=O)O)c2ccsc2)C(=O)N2[C@@H](C(=O)O)C(C)(C)S[C@@H]21 (stereo partly shown) [Temocillin] | > 32 µg/mL | R | > 32 µg/mL | R |  |  |  | R |  | R |  | S | > 32 µg/mL | R |  | R |  | R | MIC ([4]; Table S1, K. pneumoniae 311, read-out: MIC): > 32 µg/mL; MIC ([5]; Table S1, E. coli 1376, read-out: MIC): > 32 µg/mL; MIC ([6]; Table S1, E. coli 1441, read-out: MIC): 8 µg/mL (≈ 19.3 µM); MIC ([8]; Table S1, E. coli 3140, read-out: MIC): > 32 µg/mL; MIC ([9]; Table S1, E. coli 716, read-out: MIC): > 32 µg/mL
14 | CN(C)c1cc(NC(=O)CNC(C)(C)C)c(O)c2c1C[C@H]1C[C@H]3[C@H](N(C)C)C(O)=C(C(N)=O)C(=O)[C@@]3(O)C(O)=C1C2=O [Tigecycline] |  |  |  |  |  |  |  |  | ≤ 0.5 µg/mL | S | ≤ 0.5 µg/mL | S | > 2 µg/mL | R |  |  | > 2 µg/mL | R | 
15 | Colistin |  |  |  |  |  | S |  |  |  |  |  |  |  |  |  |  |  |  | MIC ([3]; Table S1, K. pneumoniae 1746): 0.25 µg/mL

Source: paper PMC12024264, “Frog Skin Peptides Hylin-a1, AR-23, and RV-23: Promising Tools Against Carbapenem-Resistant Escherichia coli and Klebsiella pneumoniae Infections” (Antibiotics, 2025)
